Assay results: patent US8557853B2, “Aryl fluoroethyl ureas acting as alpha 2 adrenergic agents” (Allergan, Inc., priority 2007, dated 2013)

Key:
Type in all cases: cell-based
[1] = biological target: T1, alpha2A receptor (Homo sapiens, UniProt P08913); test: RSAT (Receptor Selection and Amplification Technology) assay, alpha 2A; settings: for Alpha 2A EC50 / EC50: RSAT, transfected NIH-3T3 cells, "not active" = not active at concentrations less than 10 micromolar; for Alpha 2A IA: intrinsic activity: ratio of maximal effect of drug to maximal effect of standard full agonist brimonidine (UK14304)
T1 construct: expressed in transfected cells; host or cells: NIH-3T3 cells
T1 sequence (P08913 1-465): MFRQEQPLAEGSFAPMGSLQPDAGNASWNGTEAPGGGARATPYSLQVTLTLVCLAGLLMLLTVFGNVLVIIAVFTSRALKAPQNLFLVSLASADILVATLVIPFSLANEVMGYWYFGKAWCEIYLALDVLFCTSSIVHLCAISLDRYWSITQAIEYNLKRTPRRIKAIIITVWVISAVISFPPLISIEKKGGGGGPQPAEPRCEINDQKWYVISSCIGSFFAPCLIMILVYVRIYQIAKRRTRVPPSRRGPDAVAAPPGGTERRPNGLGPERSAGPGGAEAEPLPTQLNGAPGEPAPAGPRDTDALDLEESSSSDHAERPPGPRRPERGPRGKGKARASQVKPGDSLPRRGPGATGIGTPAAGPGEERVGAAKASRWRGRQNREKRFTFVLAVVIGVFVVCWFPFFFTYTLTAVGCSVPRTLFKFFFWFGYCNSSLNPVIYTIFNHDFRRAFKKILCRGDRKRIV
From the text: (§1) The aryl fluoroethyl ureas of the invention are agonists of alpha2 adrenergic receptors. […] Al, 1995, Pharmacol. Toxicol. 76, pp. 308-311 (incorporated herein by reference) and is also described below. Another reference pertinent to this assay is Conklin et al. (1993) Nature 363:274-6, Receptor Selection and Amplification Technology (RSAT) assay, also incorporated herein by reference.
(§2) The RSAT assay measures a receptor-mediated loss of contact inhibition that results in selective proliferation of receptor-containing cells in a mixed population of confluent cells. The increase in cell number is assessed with an appropriate transfected marker gene such as ∃-galactosidase, the activity of which can be easily measured in a 96-well format. Receptors that activate the G protein, Gq, elicit this response. Alpha 2 receptors, which normally couple to Gi, activate the RSAT response when coexpressed with a hybrid Gq protein that has a Gi receptor recognition domain, called Gq/i5.
(§3) NIH-3T3 cells are plated at a density of 2×10^6 cells in 15 cm dishes and maintained in Dulbecco's modified Eagle's medium supplemented with 10% calf serum. One day later, cells are cotransfected by calcium phosphate precipitation with mammalian expression plasmids encoding p-SV-β-galactosidase (5-10 μg), receptor (1-2 μg) and G protein (1-2 μg). 40 μg salmon sperm DNA may also be included in the transfection mixture. Fresh media is added on the following day and 1-2 days later, cells are harvested and frozen in 50 assay aliquots. Cells are thawed and 100 μl added to 100 μl aliquots of various concentrations of drugs in triplicate in 96-well dishes. Incubations continue 72-96 hr at 37° C. After washing with phosphate-buffered saline, ∃-galactosidase enzyme activity is determined by adding 200 μl of the chromogenic substrate (consisting of 3.5 mM o-nitrophenyl-β-D-galactopyranoside and 0.5% nonidet P-40 in phosphate buffered saline), incubating overnight at 30° C. and measuring optical density at 420 nm. The absorbance is a measure of enzyme activity, which depends on cell number and reflects a receptor-mediated cell proliferation. The efficacy or intrinsic activity is calculated as a ratio of the maximal effect of the drug to the maximal effect of a standard full agonist for each receptor subtype. Brimonidine, also called UK14304, the chemical structure of which is shown below, is used as the standard agonist for the alpha2A, alpha2B and alpha2C receptors.
(§4) The results of the RSAT assay with several exemplary compounds of the invention are disclosed in Table 1 below together with the chemical structures of these compounds. “Not active” means the compounds are not active at concentrations less than 10 micromolar.

[2] = biological target: T2, alpha2B receptor (Homo sapiens, UniProt P18089); test: RSAT (Receptor Selection and Amplification Technology) assay, alpha 2B; settings: for EC50: RSAT, transfected NIH-3T3 cells, "not active" = not active at concentrations less than 10 micromolar, read-out: Alpha 2B EC50; for Alpha 2B IA: intrinsic activity: ratio of maximal effect of drug to maximal effect of standard full agonist brimonidine (UK14304)
T2 construct: expressed in transfected cells; host or cells: NIH-3T3 cells
T2 sequence (P18089 1-450): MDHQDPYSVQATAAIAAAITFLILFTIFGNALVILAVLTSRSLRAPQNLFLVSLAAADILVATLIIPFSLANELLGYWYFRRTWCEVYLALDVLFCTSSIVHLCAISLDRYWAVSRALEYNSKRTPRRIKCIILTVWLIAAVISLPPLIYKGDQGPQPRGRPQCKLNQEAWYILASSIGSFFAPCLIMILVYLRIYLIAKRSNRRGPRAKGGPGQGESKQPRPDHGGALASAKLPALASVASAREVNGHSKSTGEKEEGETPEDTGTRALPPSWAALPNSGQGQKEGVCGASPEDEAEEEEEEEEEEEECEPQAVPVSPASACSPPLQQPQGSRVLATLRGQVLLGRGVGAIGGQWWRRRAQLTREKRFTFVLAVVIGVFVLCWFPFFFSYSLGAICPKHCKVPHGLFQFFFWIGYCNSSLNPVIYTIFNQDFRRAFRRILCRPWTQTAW
Experimental: as §2, §3

[3] = biological target: T3, alpha2C receptor (Homo sapiens, UniProt P18825); test: RSAT (Receptor Selection and Amplification Technology) assay, alpha 2C; settings: for Alpha 2C EC50 / EC50: RSAT, transfected NIH-3T3 cells, "not active" = not active at concentrations less than 10 micromolar; for Alpha 2C IA: intrinsic activity: ratio of maximal effect of drug to maximal effect of standard full agonist brimonidine (UK14304)
T3 construct: expressed in transfected cells; host or cells: NIH-3T3 cells
T3 sequence (P18825 1-462): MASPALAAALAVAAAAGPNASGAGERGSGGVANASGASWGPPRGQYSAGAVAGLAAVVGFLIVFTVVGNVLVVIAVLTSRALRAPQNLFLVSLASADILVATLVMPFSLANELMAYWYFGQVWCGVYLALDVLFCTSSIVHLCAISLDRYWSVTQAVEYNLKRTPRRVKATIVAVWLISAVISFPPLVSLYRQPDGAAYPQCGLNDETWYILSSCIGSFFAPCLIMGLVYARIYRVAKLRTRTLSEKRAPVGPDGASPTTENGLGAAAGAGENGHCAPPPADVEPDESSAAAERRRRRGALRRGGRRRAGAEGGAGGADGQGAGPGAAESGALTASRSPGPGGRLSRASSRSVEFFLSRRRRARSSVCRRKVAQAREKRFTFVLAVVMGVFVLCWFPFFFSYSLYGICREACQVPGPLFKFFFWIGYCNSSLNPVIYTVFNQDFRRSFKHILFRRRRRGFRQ
From the text: as §1, §2, §3, §4

Structure (SMILES) | Alpha 2A EC50 [1] | EC50 [2] [nM] | Alpha 2B IA [2] | Alpha 2C EC50 [3] | EC50 [1] [nM] | Alpha 2A IA [1] | EC50 [3] [nM] | Alpha 2C IA [3]
O=C(NCCF)NC(c1ccccc1)c1ccccc1 [Compound 32, 1-benzhydryl-3-(2-fluoro-ethyl)-urea] | not active | 325 | 0.58 | not active |  |  |  | 
O=C(NCCF)NCc1cccc(Br)c1 [Compound 7, 1-(3-bromo-benzyl)-3-(2-fluoro-ethyl)-urea] |  | 355 | 0.84 |  | > 2000 | 0.46 | 556 | 0.81
Cc1cccc(CNC(=O)NCCF)c1Cl [Compound 14, 1-(2-chloro-3-methyl-benzyl)-3-(2-fluoro-ethyl)-urea] |  | 8.5 | 0.85 |  | 366 | 0.34 | 101 | 0.66
O=C(NCCF)NCc1cccc(Br)n1 [Compound 38, 1-(6-bromo-pyridin-2-ylmethyl)-3-(2-fluoro-ethyl)-urea] | not active | 592 | 0.85 |  |  |  | 2160 | 0.65
O=C(NCCF)Nc1ccc2ccccc2c1 [Compound 25, 1-(2-fluoro-ethyl)-3-naphthalen-2-yl-urea] |  | 1580 | 0.99 |  | 1270 | 0.58 | > 2000 | 0.59
O=C(NCCF)Nc1ccccc1Br [Compound 26, 1-(2-bromo-phenyl)-3-(2-fluoro-ethyl)-urea] | not active | 2650 | 0.33 | not active |  |  |  | 
O=C(NCCF)NCc1cccc(C(F)(F)F)c1Cl [Compound 11, 1-(2-chloro-3-trifluoromethyl-benzyl)-3-(2-fluoro-ethyl)-urea] | not active | 106 | 0.9 |  |  |  | 1090 | 0.66
O=C(NCCF)NCc1cccc2c1OCO2 [Compound 31, 1-benzo(1,3)dioxol-4-ylmethyl-3-(2-fluoro-ethyl)-urea] |  | 119 | 1.0 |  | > 2000 | 0.48 | 2020 | 1.2
O=C(NCCF)NCc1cccc(I)c1 [Compound 9, 1-(2-fluoro-ethyl)-3-(3-iodo-benzyl)-urea] |  | 171 | 0.76 |  | 1480 | 0.48 | 302 | 0.62
Cc1cccc(NC(=O)NCCF)c1C [Compound 27, 1-(2,3-dimethyl-phenyl)-3-(2-fluoro-ethyl)-urea] |  | 401 | 0.9 |  | > 2000 | 0.54 | 740 | 0.73
O=C(NCCF)NCc1ccccc1F [Compound 3, 1-(2-fluoro-benzyl)-3-(2-fluoro-ethyl)-urea] | not active | 148 | 1.1 |  |  |  | 363 | 0.63
